Source: patent US12011444B2, “N-substituted indole derivatives as PGE2 receptor modulators” (Idorsia Pharmaceuticals Ltd, priority 2015, dated 2024)
pIC50: −log10 of the molar value.

How the values were obtained:
PTRGER4 (EP4) = PTRGER4 (EP4) (Homo sapiens (Human), UniProt P35408); test: hEP4 b-arrestin assay (PathHunter HEK 293 PTGER4 b-arrestin cells); type: cell-based
Procedure, shortened: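 Antagonist mode: compound is given 15 min at 37 °C, then 20 nM (final) PGE2 for 120 min, in HEK293 cells stably expressing EP4 fused to ProLink and β-arrestin 2 fused to EA. Recruitment read as β-gal luminescence after 1 h reagent at room temperature, as percent of DMSO control.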

PTGER2 (EP2) = PTGER2 (EP2) (Homo sapiens (Human), UniProt P43116); test: hEP2 b-arrestin assay (PathHunter HEK 293 PTGER2 b-arrestin cells); type: cell-based
Procedure, shortened: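 Readout is β-galactosidase complementation luminescence, expressed as percent of DMSO control (duplicates). PathHunter HEK293 EP2/β-arrestin 2 cells, grown 24 h, received compound for 15 min at 37 °C before a 120 min challenge with PGE2 at 5 μM final, followed by 1 h detection at room temperature.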

[1] = antagonistic activity on hEP4, mean where measured multiple times
[2] = antagonistic activity on hEP2, mean where measured multiple times
[3] = hEP4 b-arrestin assay (values without asterisk)
[4] = hEP2 b-arrestin assay (values without asterisk)

PTGER2 (EP2), sequence (P43116 whole entry): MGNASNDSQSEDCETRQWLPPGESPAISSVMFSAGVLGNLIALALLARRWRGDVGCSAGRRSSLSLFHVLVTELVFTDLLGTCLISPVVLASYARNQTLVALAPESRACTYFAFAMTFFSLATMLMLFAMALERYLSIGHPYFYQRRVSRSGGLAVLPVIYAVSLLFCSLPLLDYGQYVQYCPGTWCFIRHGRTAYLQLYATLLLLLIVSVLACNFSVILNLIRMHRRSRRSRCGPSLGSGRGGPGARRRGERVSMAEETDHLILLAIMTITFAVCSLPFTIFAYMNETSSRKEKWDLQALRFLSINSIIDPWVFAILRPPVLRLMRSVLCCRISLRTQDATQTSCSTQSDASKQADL
PTRGER4 (EP4), sequence (P35408 whole entry, looked up, the tested form may be a part): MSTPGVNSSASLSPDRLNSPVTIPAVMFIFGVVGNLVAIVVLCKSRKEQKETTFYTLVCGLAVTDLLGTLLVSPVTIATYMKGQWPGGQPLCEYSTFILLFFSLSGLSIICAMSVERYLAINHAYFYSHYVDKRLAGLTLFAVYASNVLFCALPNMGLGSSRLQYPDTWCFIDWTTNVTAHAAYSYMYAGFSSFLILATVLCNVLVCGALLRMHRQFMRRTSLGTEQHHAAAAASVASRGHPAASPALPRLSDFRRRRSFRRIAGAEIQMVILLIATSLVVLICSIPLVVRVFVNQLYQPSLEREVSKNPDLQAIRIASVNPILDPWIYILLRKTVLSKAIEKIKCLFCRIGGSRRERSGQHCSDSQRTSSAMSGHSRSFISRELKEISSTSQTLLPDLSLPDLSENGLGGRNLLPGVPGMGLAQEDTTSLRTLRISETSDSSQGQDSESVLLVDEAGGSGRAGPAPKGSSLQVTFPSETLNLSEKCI

Row | pIC50 (PTRGER4 (EP4); [1]) | pIC50 (PTGER2 (EP2); [2]) | pIC50 (PTRGER4 (EP4); [3]) | pIC50 (PTGER2 (EP2); [4]) | Molecule
1 | 6.82 | 8.30 | – | – | CCCc1cc(-c2cc(NCCn3c(C)cc4c(OC)cccc43)ncn2)ccc1C(=O)O [compound 271]
2 | 6.72 | 8.40 | – | – | CCOc1cc(-c2cc(NCCn3c(C)cc4c(OC)cccc43)ncn2)ccc1CO [compound 127, (2-Ethoxy-4-{6-[2-(4-methoxy-2-methyl-indol-1-yl)-ethylamino]-pyrimidin-4-yl}-phenyl)-methanol]
3 | – | – | 6.93 | 7.38 | CCOc1cc(-c2cc(NCCn3c(C#N)cc4c(C)c(F)c(F)cc43)ncn2)ccc1OCC(=O)O [Example 893, (4-{6-[2-(2-Cyano-5,6-difluoro-4-methyl-indol-1-yl)-ethylamino]-pyrimidin-4-yl}-2-ethoxy-phenoxy)-acetic acid]
4 | – | – | 8.70 | 8.15 | COc1ccc(F)c2c1cc(C#N)n2CCNc1cc(-c2ccc(-c3nc[nH]c3C)cc2)ncn1 [Example 819, 7-Fluoro-4-methoxy-1-(2-{6-[4-(5-methyl-1H-imidazol-4-yl)-phenyl]-pyrimidin-4-ylamino}-ethyl)-1H-indole-2-carbonitrile]
5 | 6.31 | 7.40 | – | – | COc1cccc2c1cc(C)n2CCNc1cc(-c2ccc(-c3nnc(C)o3)c(F)c2)ncn1 [compound 300, {6-[3-Fluoro-4-(5-methyl-[1,3,4]oxadiazol-2-yl)-phenyl]-pyrimidin-4-yl}-[2-(4-methoxy-2-methyl-indol-1-yl)-ethyl]-amine]
6 | – | – | 7.55 | 8.05 | CCOc1cc(-c2cc(NCCn3c(C)cc4c(OC)ccc(F)c43)ncn2)ccc1OCC(=O)O [Example 810, (2-Ethoxy-4-{6-[2-(7-fluoro-4-methoxy-2-methyl-indol-1-yl)-ethylamino]-pyrimidin-4-yl}-phenoxy)-acetic acid]
7 | 7.09 | 8.40 | – | – | Cc1cc2c(Cl)ccc(F)c2n1CCNc1cc(-c2cc(Cl)c(C(=O)O)s2)ncn1 [compound 14, 3-Chloro-5-{6-[2-(4-chloro-7-fluoro-2-methyl-indol-1-yl)-ethylamino]-pyrimidin-4-yl}-thiophene-2-carboxylic acid]
8 | – | – | 6.82 | 7.60 | COc1ccc(F)c2c1cc(C#N)n2CCNc1cc(-c2ccc3c(=O)[nH][nH]c(=O)c3c2)ncn1 [Example 1064, 1-{2-[6-(1,4-Dioxo-1,2,3,4-tetrahydro-phthalazin-6-yl)-pyrimidin-4-ylamino]-ethyl}-7-fluoro-4-methoxy-1H-indole-2-carbonitrile]
9 | – | – | 7.96 | 8.52 | COC(=O)c1ccc2[nH]c(-c3cc(NCCn4c(C#N)cc5c(OC)ccc(F)c54)ncn3)cc2c1 [Example 962, 2-{6-[2-(2-Cyano-7-fluoro-4-methoxy-indol-1-yl)-ethylamino]-pyrimidin-4-yl}-1H-indole-5-carboxylic acid methyl ester]
10 | 7.59 | 8.70 | – | – | CCOc1cc(-c2cc(NCCn3c(C)cc4c(C)cc(F)cc43)ncn2)sc1C(=O)O [compound 229]
11 | 6.12 | 8.30 | – | – | CCc1cc(-c2cc(NCCn3c(C)cc4c(F)ccc(F)c43)ncn2)ccc1C(=O)O [compound 121, 4-{6-[2-(4,7-Difluoro-2-methyl-indol-1-yl)-ethylamino]-pyrimidin-4-yl}-2-ethyl-benzoic acid]
12 | – | – | 7.80 | 7.52 | CCCc1cc(-c2cc(NCCn3c(C#N)cc4c(OC)ccc(F)c43)ncn2)ccc1C(=O)O [Example 947, 4-{6-[2-(2-Cyano-7-fluoro-4-methoxy-indol-1-yl)-ethylamino]-pyrimidin-4-yl}-2-propyl-benzoic acid]
13 | – | – | 8.00 | 7.64 | COc1cccc2c1cc(C#N)n2CCNc1cc(-c2cc(C(F)(F)F)c(C(=O)O)s2)ncn1 [Example 910, 5-{6-[2-(2-Cyano-4-methoxy-indol-1-yl)-ethylamino]-pyrimidin-4-yl}-3-trifluoromethyl-thiophene-2-carboxylic acid]
14 | 6.22 | 6.85 | – | – | Cc1c(F)cc2c(cc(C)n2CCNc2cc(-c3ccc(C(=O)O)c(CC(C)C)c3)ncn2)c1F [compound 102]
15 | 6.95 | 7.80 | – | – | COc1ccc(F)c2c1cc(C)n2CCNc1cc(-c2ccc3[nH]cnc3c2)ncn1 [compound 57, [6-(1H-Benzoimidazol-5-yl)-pyrimidin-4-yl]-[2-(7-fluoro-4-methoxy-2-methyl-indol-1-yl)-ethyl]-amine]
16 | 6.13 | 6.88 | – | – | Cc1ccc(F)c2c1cc(C)n2CCNc1cc(-c2cc(F)c(S(N)(=O)=O)c(F)c2)ncn1 [compound 166]
17 | – | – | 7.35 | 7.30 | CCc1cc(-c2cc(NCCn3c(C#N)cc4c(OC)ccc(F)c43)ncn2)ccc1C(=O)O [Example 948, 4-{6-[2-(2-Cyano-7-fluoro-4-methoxy-indol-1-yl)-ethylamino]-pyrimidin-4-yl}-2-ethyl-benzoic acid]
18 | 6.95 | 7.72 | – | – | COc1ccc(F)c2c1cc(C)n2CCNc1cc(-c2cc(Cl)c(C(=O)O)c(Cl)c2)ncn1 [compound 293]
19 | 7.17 | 7.28 | – | – | CCNC(=O)Nc1ccc(-c2cc(NCCn3c(C)cc4c(C)ccc(F)c43)ncn2)cc1OC [compound 374]
20 | 6.84 | 8.52 | – | – | COc1cccc2c1cc(C)n2CCNc1cc(-c2cc(Cl)c(C(=O)O)s2)ncn1 [compound 23, 3-Chloro-5-{6-[2-(4-methoxy-2-methyl-indol-1-yl)-ethylamino]-pyrimidin-4-yl}-thiophene-2-carboxylic acid]
21 | 6.54 | 7.15 | – | – | CCc1cc(-c2cc(NCCn3c(C)cc4c(C)cc(F)cc43)ncn2)cc(Cl)c1C(=O)O [compound 264]
22 | 6.40 | 7.38 | – | – | CCSc1cc(-c2cc(NCCn3c(C)cc4c(C)c(F)cc(Cl)c43)ncn2)ccc1C(=O)O [compound 341, 4-{6-[2-(7-Chloro-5-fluoro-2,4-dimethyl-indol-1-yl)-ethylamino]-pyrimidin-4-yl}-2-ethylsulfanyl-benzoic acid]
23 | – | – | 8.52 | 8.70 | CCOc1cc(-c2cc(NCCn3c(C#N)cc4c(OC)cccc43)ncn2)sc1C(=O)O [Example 813, 5-{6-[2-(2-Cyano-4-methoxy-indol-1-yl)-ethylamino]-pyrimidin-4-yl}-3-ethoxy-thiophene-2-carboxylic acid]
24 | 6.01 | 6.71 | – | – | COc1ccc(Cl)c2c1cc(C)n2CCNc1cc(-c2ccc3cnn(C)c3c2)ncn1 [compound 82]
25 | – | – | 7.16 | 8.40 | N#Cc1cc2c(Cl)cccc2n1CCNc1cc(-c2cc(F)c(C(=O)O)s2)ncn1 [Example 903, 5-{6-[2-(4-Chloro-2-cyano-indol-1-yl)-ethylamino]-pyrimidin-4-yl}-3-fluoro-thiophene-2-carboxylic acid]
26 | 6.19 | 7.68 | – | – | COc1cccc2c1cc(C)n2CCNc1cc(-c2ccc(-c3ncc[nH]3)cc2)ncn1 [compound 76, {6-[4-(1H-Imidazol-2-yl)-phenyl]-pyrimidin-4-yl}-[2-(4-methoxy-2-methyl-indol-1-yl)-ethyl]-amine]
27 | 6.05 | 6.92 | – | – | COc1cccc2c1cc(C)n2CCNc1cc(-c2ccc3c(c2)CN(C)C3=O)ncn1 [compound 87]

Row | Molecule | pIC50 (PTRGER4 (EP4); [1]) | pIC50 (PTGER2 (EP2); [2]) | pIC50 (PTRGER4 (EP4); [3]) | pIC50 (PTGER2 (EP2); [4])
28 | 5-{6-[2-(6-Fluoro-4-methoxy-2-methyl-indol-1-yl)-ethylamino]-pyrimidin-4-yl}-thiophen-3-ol [Example 801] | – | – | 6.86 | 7.70
